Reference: PubChem BioAssay (NCI)
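The compound was tested at five concentrations on cells cultured in 96-well plates, with a 48-hour exposure period. GI50: concentration for 50% inhibition of growth. TGI: concentration producing complete growth inhibition.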

Assays:
Experiment in all cases: NCI tumour cell line growth inhibition, 48 h
SNB-75 CNS = tested on: SNB-75 CNS
UO-31 renal = tested on: UO-31 renal
OVCAR-3 ovarian = tested on: OVCAR-3 ovarian
HCT-116 colon = tested on: HCT-116 colon
HOP-62 NSCLC = tested on: HOP-62 NSCLC
K-562 leukemia = tested on: K-562 leukemia
UACC-257 melanoma = tested on: UACC-257 melanoma
NCI-H522 lung = tested on: NCI-H522 lung
NCI-H23 lung = tested on: NCI-H23 lung
HS 578T breast = tested on: HS 578T breast

SMILES	TGI (SNB-75 CNS)	TGI (UO-31 renal)	TGI (OVCAR-3 ovarian)	TGI (HCT-116 colon)	TGI (HOP-62 NSCLC)	TGI (K-562 leukemia)	TGI (UACC-257 melanoma)	TGI (NCI-H522 lung)	TGI (NCI-H23 lung)	TGI (HS 578T breast)	GI50 (OVCAR-3 ovarian)	GI50 (HS 578T breast)	GI50 (HOP-62 NSCLC)	GI50 (K-562 leukemia)	GI50 (UACC-257 melanoma)	GI50 (NCI-H522 lung)	GI50 (NCI-H23 lung)	GI50 (SNB-75 CNS)	GI50 (UO-31 renal)	GI50 (HCT-116 colon)
CC(C)c1cccc(C(C)C)c1N=C(N)C#N	> 100 µM	> 100 µM	> 100 µM	> 58.6 µM	> 100 µM	> 61.7 µM	> 79.6 µM	> 100 µM	> 100 µM											
COC1OC(CBr)C(OC(c2ccccc2)(c2ccccc2)c2ccccc2)C(OC(c2ccccc2)(c2ccccc2)c2ccccc2)C1OC(c1ccccc1)(c1ccccc1)c1ccccc1 (stereo not drawn)		36.8 µM	28.6 µM	> 100 µM	> 100 µM	> 100 µM	> 100 µM	40.8 µM	> 100 µM	89.4 µM										
C[C@@H](NC1CCC[C@@H]1O)c1ccccc1 (stereo partly drawn)	> 100 µM	> 100 µM	> 100 µM	> 100 µM	> 100 µM	> 100 µM	> 100 µM													
CCCC1C(=O)C(CC)Cc2c(OC)ccc(OC)c21 (stereo not drawn)	> 100 µM	> 100 µM	> 100 µM		> 100 µM	> 100 µM	> 100 µM	> 100 µM												
C[Si](C)(C)/C=C\CCCN1C(=O)CCC1=O	> 100 µM	> 100 µM	> 100 µM	> 100 µM		> 100 µM	> 100 µM	> 100 µM	> 100 µM											
Cc1ccc(C(=O)CCC2C(=O)CC(C)(C)CC2=O)cc1	> 100 µM	> 100 µM	> 100 µM	> 100 µM	> 100 µM		> 100 µM	34.4 µM	> 100 µM	> 100 µM										
CC(=O)NC1C(OCc2ccccc2)OC(COC(=O)CCCCCNc2ccc([N+](=O)[O-])c3[nH]c4ccc(O)cc4c(=O)c23)C(O)C1OC(C)C(=O)N[C@@H](C)C(=O)N[C@H](CCC(=O)OCc1ccccc1)C(N)=O (stereo partly drawn)	13.2 µM		6.24 µM	1.34 µM	22.7 µM	> 100 µM	6.38 µM	3.61 µM	3.14 µM											
NCCCn1c2c(c3cc4c(cc3c1=O)OCO4)C(=O)c1ccccc1-2			1.27 µM	0.554 µM	0.729 µM	0.602 µM	4.7 µM	4.39 µM	2.09 µM	4.4 µM	0.564 µM	1.88 µM	0.187 µM	0.181 µM	1.38 µM	1.92 µM	0.564 µM			
O=S1c2ccccc2N=C(c2ccc(Cl)cc2)CC1c1cccs1 (stereo not drawn)	> 100 µM	51.6 µM	17.3 µM	24.3 µM	> 100 µM	61 µM	63.5 µM	83.5 µM	85.3 µM											
CC1=C(/C=C/C2=CC(=C\C(=O)O)/CC(C3=C(C)CCCC3(C)C)C2)C(C)(C)CCC1 (stereo not drawn)	28.8 µM	22.5 µM	27.1 µM	37 µM	27 µM		29.5 µM	22.7 µM	27.6 µM											
C/C=C1\C(=O)O[C@@H]2C1C[C@@H]1O[C@H]2[C@H](C)CCC/C(C)=C/CC[C@@]1(C)O (stereo partly drawn)	33.4 µM	10.4 µM	11.9 µM	10.1 µM		> 100 µM	10.9 µM	7.06 µM			1.48 µM			9.72 µM	4.2 µM	2.29 µM		9.81 µM	3.02 µM	2.81 µM
